Results on 41 molecules are retold here after ChEMBL document CHEMBL5291721, “A preclinical secondary pharmacology resource illuminates target-adverse drug reaction associations of marketed drugs” (Nat Commun, 2023).

Molecules are shown by their SMILES. Bounds are passed on as bounds.

Assay [1] has as its target T1, Progesterone receptor (Homo sapiens, UniProt P06401).
T1 sequence (P06401 whole entry): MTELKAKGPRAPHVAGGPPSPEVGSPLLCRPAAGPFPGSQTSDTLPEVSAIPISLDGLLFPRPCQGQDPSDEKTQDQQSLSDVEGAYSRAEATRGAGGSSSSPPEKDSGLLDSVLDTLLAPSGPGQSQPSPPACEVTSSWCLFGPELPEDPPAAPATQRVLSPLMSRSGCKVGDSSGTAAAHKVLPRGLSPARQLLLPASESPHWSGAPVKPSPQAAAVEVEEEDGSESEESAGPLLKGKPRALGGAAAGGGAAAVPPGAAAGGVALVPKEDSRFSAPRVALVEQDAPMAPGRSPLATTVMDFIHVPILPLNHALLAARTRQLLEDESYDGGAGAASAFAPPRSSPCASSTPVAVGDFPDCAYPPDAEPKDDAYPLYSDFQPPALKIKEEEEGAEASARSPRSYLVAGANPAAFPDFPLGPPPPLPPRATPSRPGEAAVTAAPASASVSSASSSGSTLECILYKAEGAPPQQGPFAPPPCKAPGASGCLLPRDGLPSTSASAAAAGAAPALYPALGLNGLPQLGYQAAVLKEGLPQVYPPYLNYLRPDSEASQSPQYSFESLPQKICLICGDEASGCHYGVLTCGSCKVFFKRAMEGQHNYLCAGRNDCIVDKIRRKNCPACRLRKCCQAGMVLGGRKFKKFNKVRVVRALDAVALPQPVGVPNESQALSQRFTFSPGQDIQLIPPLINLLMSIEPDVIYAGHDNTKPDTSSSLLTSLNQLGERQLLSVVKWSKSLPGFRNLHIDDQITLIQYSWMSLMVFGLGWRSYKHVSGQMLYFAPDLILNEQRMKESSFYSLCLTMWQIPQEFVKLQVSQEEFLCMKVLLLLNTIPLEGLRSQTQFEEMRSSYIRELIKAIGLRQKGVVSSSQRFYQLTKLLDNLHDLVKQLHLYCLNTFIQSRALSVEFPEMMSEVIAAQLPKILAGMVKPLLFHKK
Format: functional.

Assay [2] concerns the target T2, Prostaglandin G/H synthase 1 (Rattus norvegicus, UniProt Q63921).
T2 sequence (Q63921 whole entry): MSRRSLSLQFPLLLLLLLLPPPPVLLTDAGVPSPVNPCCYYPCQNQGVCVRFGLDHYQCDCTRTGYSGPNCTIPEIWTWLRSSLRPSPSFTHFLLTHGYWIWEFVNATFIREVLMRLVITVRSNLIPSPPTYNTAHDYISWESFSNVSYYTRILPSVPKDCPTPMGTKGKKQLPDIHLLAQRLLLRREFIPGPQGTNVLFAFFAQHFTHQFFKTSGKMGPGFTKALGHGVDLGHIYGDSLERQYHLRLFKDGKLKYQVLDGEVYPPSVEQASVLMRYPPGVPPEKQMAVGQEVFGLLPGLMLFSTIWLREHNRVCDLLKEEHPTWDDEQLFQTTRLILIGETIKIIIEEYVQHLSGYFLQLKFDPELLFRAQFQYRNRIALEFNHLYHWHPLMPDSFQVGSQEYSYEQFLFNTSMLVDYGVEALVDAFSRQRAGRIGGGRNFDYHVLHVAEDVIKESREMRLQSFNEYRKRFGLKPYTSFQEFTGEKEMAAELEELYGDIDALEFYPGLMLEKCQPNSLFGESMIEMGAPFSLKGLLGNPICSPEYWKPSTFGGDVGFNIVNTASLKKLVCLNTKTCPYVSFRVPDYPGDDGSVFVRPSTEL
The format is functional.

Assay [3] addresses T3, Adenosine receptor A3 (Homo sapiens, UniProt P0DMS8).
T3 sequence (P0DMS8 whole entry): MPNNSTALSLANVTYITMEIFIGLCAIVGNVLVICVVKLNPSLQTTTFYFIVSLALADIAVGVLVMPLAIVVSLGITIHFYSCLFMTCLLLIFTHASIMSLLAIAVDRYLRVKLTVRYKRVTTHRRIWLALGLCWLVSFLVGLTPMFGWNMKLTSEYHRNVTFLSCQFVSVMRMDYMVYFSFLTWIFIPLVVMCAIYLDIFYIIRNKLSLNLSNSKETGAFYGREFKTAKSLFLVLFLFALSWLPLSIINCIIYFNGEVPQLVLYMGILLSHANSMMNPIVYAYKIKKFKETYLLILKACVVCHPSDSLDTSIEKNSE

Assay [4] addresses T4, Amine oxidase [flavin-containing] A (Homo sapiens, UniProt P21397).
T4 sequence (P21397 whole entry): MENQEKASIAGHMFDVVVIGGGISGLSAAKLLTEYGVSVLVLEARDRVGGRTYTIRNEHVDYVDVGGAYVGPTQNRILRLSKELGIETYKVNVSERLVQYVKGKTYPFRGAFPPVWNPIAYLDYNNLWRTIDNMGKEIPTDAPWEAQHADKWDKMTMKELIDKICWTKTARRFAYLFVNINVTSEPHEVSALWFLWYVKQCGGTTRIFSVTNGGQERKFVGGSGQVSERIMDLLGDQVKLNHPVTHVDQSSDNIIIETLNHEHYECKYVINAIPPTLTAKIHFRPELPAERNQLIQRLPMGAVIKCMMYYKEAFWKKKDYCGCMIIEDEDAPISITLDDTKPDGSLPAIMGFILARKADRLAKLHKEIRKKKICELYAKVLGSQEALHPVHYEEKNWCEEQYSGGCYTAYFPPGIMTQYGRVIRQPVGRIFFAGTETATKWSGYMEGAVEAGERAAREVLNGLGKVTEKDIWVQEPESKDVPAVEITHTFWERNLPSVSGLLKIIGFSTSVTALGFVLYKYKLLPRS
The format is functional.

Assay [5] deals with Sodium-dependent noradrenaline transporter (Homo sapiens, UniProt P23975).
Note: assay procedure not described here.

Sequence of Sodium-dependent noradrenaline transporter (P23975 whole entry): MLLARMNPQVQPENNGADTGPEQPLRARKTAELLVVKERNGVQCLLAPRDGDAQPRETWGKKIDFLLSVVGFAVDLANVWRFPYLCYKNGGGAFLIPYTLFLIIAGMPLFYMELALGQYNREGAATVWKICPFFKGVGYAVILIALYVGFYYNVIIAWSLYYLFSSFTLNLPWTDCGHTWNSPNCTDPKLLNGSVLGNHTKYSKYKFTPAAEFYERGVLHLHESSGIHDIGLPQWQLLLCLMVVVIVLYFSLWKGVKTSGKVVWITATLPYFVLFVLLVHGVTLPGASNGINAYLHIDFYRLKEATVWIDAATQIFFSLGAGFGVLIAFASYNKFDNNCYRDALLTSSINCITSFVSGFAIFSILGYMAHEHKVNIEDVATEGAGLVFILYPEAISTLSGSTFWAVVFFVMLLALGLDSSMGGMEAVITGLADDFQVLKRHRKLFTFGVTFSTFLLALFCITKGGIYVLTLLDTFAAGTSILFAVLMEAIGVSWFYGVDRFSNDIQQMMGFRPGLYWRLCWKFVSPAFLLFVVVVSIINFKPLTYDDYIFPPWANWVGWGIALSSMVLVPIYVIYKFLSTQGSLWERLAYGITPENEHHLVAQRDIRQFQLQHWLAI

In the case of `C[N+]1(C)CCC(=C(c2ccccc2)c2ccccc2)CC1`, the AC50 was more than 10 µM in assay [1], more than 10 µM in assay [2], more than 30 µM in assay [3] and more than 10 µM in assay [4].
In assay [5], `Cc1cc2c(cc1S(N)(=O)=O)S(=O)(=O)CCC2` returned an AC50 of more than 30 µM.
On the same count and under the same terms, the same measure for `C[C@H](N[C@@H](CCc1ccccc1)C(=O)O)C(=O)N1Cc2ccccc2C[C@H]1C(=O)O`: more than 30 µM; for `O=C(O)[C@@H]1C[C@@H](O)CN1`: more than 30 µM.
With `Cc1ccccc1-n1c(CF)nc2ccc(N)cc2c1=O` [AFLOQUALONE], the AC50 is more than 30 µM in assay [1], 27.9 µM in assay [2], more than 30 µM in assay [3] and more than 10 µM in assay [4].
Take `CC1(C)S[C@@H]2[C@H](/N=C/N3CCCCCC3)C(=O)N2[C@H]1C(=O)O` [AMDINOCILLIN]: the AC50 in assay [5] was more than 30 µM.
As for `CCC1(c2ccc(N)cc2)CCC(=O)NC1=O` (centres undefined) [AMINOGLUTETHIMIDE], the AC50 in assay [1], in assay [2], in assay [3] and in assay [4] was more than 30 µM each time.
On to `CC(=O)[C@]1(N)Cc2c(O)c3c(c(O)c2[C@@H](O[C@H]2C[C@H](O)[C@H](O)CO2)C1)C(=O)c1ccccc1C3=O` [AMRUBICIN], for which the half-maximal activity concentration (AC50) in assay [5] was more than 30 µM.
Still for that read-out and setting: the same measure for `NC(=O)[C@@H]1CC[C@@H]2CN1C(=O)N2OS(=O)(=O)O` [AVIBACTAM]: more than 30 µM; for `CC(=O)OC[C@H]1O[C@@H](n2ncc(=O)[nH]c2=O)[C@H](OC(C)=O)[C@@H]1OC(C)=O` [AZARIBINE]: more than 30 µM.
As for `CC(Cc1cccc(C(F)(F)F)c1)NCCOC(=O)c1ccccc1` (centres undefined) [BENFLUOREX], the AC50 in assay [1] is more than 30 µM; in assay [3], 28 µM; in assay [4], more than 30 µM.
For the molecule `CCOC(=O)c1ccc(N)cc1` [BENZOCAINE], the AC50 in assay [1] is more than 10 µM; in assay [2] it was more than 10 µM; in assay [3], more than 10 µM; in assay [4], 19 µM.
In the case of `CC(C)(C)NC(=O)N[C@H](C(=O)N1C[C@H]2[C@@H]([C@H]1C(=O)NC(CC1CCC1)C(=O)C(N)=O)C2(C)C)C(C)(C)C` (some centres undefined) [BOCEPREVIR], the AC50 in assay [5] was more than 30 µM.
With `C=C1CC[C@H](O)C/C1=C/C=C1\CCC[C@]2(C)[C@@H]([C@H](C)CCCC(C)C)CC[C@@H]12` [CHOLECALCIFEROL], in assay [5], the AC50 is more than 10 µM.
Turning to `Cc1ncc2c(c1O)COC2c1ccc(Cl)cc1` (centres undefined) [CICLETANINE], in assay [5], the concentration at half-maximal activity (AC50) was more than 30 µM.
The same measure, in the same setting: the same measure for `Cc1cn([C@H]2O[C@@H](CO)[C@H](O)[C@H]2F)c(=O)[nH]c1=O` [CLEVUDINE]: more than 30 µM; for `N#Cc1ccc(Oc2ccc3c(c2)COB3O)cc1` [CRISABOROLE]: more than 30 µM; for `CC(=O)[C@H]1CC[C@H]2[C@@H]3C=CC4=CC(=O)CC[C@@]4(C)[C@@H]3CC[C@]12C` [DYDROGESTERONE]: more than 30 µM.
In turn, `CC(=O)O[C@H]1Cc2ccccc2N(C(N)=O)c2ccccc21` [ESLICARBAZEPINE ACETATE] showed an AC50 in assay [5] of more than 30 µM.
The same measure, in the same setting: the same measure for `CC(O)(P(=O)(O)O)P(=O)(O)O` [ETIDRONIC ACID]: more than 30 µM; for `Cc1ccc(S(=O)(=O)NC(=O)NC2CCCCC2)cc1` [GLYCYCLAMIDE]: more than 30 µM.
On the same count and under the same terms, the same measure for `CN1CCCN(C(c2ccccc2)c2ccc(Cl)cc2)CC1` (centres undefined) [HOMOCHLORCYCLIZINE]: 12.9 µM; for `CC(=O)OCC(=O)[C@@]1(O)CC[C@H]2[C@@H]3CCC4=CC(=O)CC[C@]4(C)[C@H]3[C@@H](O)C[C@@]21C` [HYDROCORTISONE ACETATE]: more than 30 µM.
As to `CN(C)CCCN1c2ccccc2CCc2ccccc21` [IMIPRAMINE], the concentration at half-maximal activity (AC50) is more than 30 µM in assay [2], 30.8 µM in assay [3] and more than 10 µM in assay [4].
Molecule `CC(COc1ccccc1)NC(C)C(O)c1ccc(O)cc1` (centres undefined) [ISOXSUPRINE] yielded a concentration at half-maximal activity (AC50) in assay [5] of 11.2 µM.
The same measure, in the same setting: the same measure for `O=C(CCC/C=C\C[C@@H]1[C@@H](CC[C@@H](O)CCc2ccccc2)[C@H](O)C[C@@H]1O)OCCCCO[N+](=O)[O-]` [LATANOPROSTENE BUNOD]: more than 30 µM; for `Cc1oc(=O)oc1COC(=O)[C@@H]1N2C(=O)[C@@H](NC(=O)[C@H](N)c3ccccc3)[C@H]2SC1(C)C` [LENAMPICILLIN]: more than 30 µM.
Same read-out and setting: the same measure for `COc1ccc(OC)c(C(O)C(C)N)c1` (centres undefined) [METHOXAMINE]: more than 30 µM.
In the case of `Cc1ccccc1N1C(=O)c2cc(S(N)(=O)=O)c(Cl)cc2NC1C` (centres undefined) [METOLAZONE], the AC50 in assay [1], in assay [2], in assay [3] and in assay [4] was more than 10 µM in each case.
The molecule `CC1(CCN2CCCCC2)C(=O)CCc2ccccc21` (centres undefined) [NEPINALONE] gave an AC50 in assay [5] of more than 30 µM.
Turning to `COC(=O)C[C@](O)(CCCC(C)(C)O)C(=O)O[C@@H]1C(OC)=C[C@]23CCCN2CCc2cc4c(cc2[C@H]13)OCO4` [OMACETAXINE MEPESUCCINATE], the AC50 in assay [5] is more than 30 µM.
Same read-out and setting: the same measure for `COc1cccc(C(=O)CCN[C@@H](C)[C@H](O)c2ccccc2)c1` [OXYFEDRINE]: 2.65 µM.
As for `CC[N+](C)(CC)CCOC(=O)C(O)(c1ccccc1)C1CCCCC1` (centres undefined) [OXYPHENONIUM], the AC50 in assay [5] is more than 30 µM.
Same read-out and setting: then `C[C@@H]1C[C@H]2[C@@H]3C[C@H](F)C4=CC(=O)C=C[C@]4(C)[C@H]3[C@@H](O)C[C@]2(C)[C@@]1(O)C(=O)CO` [PARAMETHASONE], with more than 30 µM; and `CCC[C@H](N[C@@H](C)C(=O)N1[C@H](C(=O)O)C[C@@H]2CCCC[C@@H]21)C(=O)OCC` [PERINDOPRIL], with more than 30 µM.
Still for that read-out and setting: then `NNCCc1ccccc1` [PHENELZINE], with 10.8 µM.
For `N[C@@H](Cc1ccccc1)C(=O)O` [PHENYLALANINE], in assay [5], the AC50 was more than 30 µM.
For `CCCn1cnc2c1c(=O)n(CCCCC(C)=O)c(=O)n2C` [PROPENTOFYLLINE], the AC50 in assay [5] is more than 30 µM.
In the case of `CC(C)c1cccc(C(C)C)c1O` [PROPOFOL], the AC50 in assay [1] is more than 30 µM; in assay [2] it was more than 3 µM; in assay [3] it was more than 30 µM; in assay [4] it was more than 30 µM.
As for `C[C@]12CCC(=O)C[C@@H]1CC[C@@H]1[C@@H]2CC[C@]2(C)[C@@H](O)CC[C@@H]12` [STANOLONE], the half-maximal activity concentration (AC50) is 0.0396 µM in assay [1], more than 30 µM in assay [2], more than 30 µM in assay [3] and more than 30 µM in assay [4].
`O=C1OC(OC(=O)c2cccnc2Nc2cccc(C(F)(F)F)c2)c2ccccc21` (centres undefined) [TALNIFLUMATE]: the AC50 in assay [1], in assay [2], in assay [3] and in assay [4] was more than 30 µM throughout.

In general, AC50 refers to the midpoint of the concentration-response curve, whichever way the signal moves. Lower therefore signals activity at low concentration.
